Reference: paper PMC11729425 (ACS Pharmacology & Translational Science, 2024)

Key:
Aged C57BL/6J mice [1] = assay: VO2max test; assay type: in vivo, C57BL/6JRj mice; conditions: 1 mg/kg in the food, week 11
Procedure: VO2max in mice was measured with a calorimetric treadmill (Columbus Instruments) with an incremental speed protocol as previously described.[33]

Aged C57BL/6J mice [2] = assay: Uphill running; assay type: in vivo, C57BL/6JRj mice; conditions: 1 mg/kg in the food, week 13, trend for improvement
Procedure: Animals were placed on a treadmill at a speed of 15 cm/s in the beginning, then speed was increased by 3 cm/s every 12 min, with an incline of 5°. Mice were taken off the treadmill if they were considered exhausted (5 or more shocks (0.1 mA) per minute for two consecutive minutes) or if the maximum duration of the test was reached (3 h). The maximum running time before exhaustion was recorded and registered as maximum uphill running time.[34]

[3] = test system: sphingolipids in gastrocnemius muscle and brain; assay: Sphingolipid and deoxysphingolipid analysis in gastrocnemius muscle and brain of aged mice (20 weeks); assay type: in vivo, C57BL/6JRj mice; conditions: 1 mg/kg in the food
Procedure: Figure 4 1-deoxy-SL species accumulate in muscle and brain tissues during aging and contribute to cellular protein aggregation. (A,B) Heat map representing the abundance of sphingolipids in (A) gastrocnemius muscle and (B) brain with and without treatment with ALT-007 in mice (ALT-007 at 1 mg/kg; DMSO at equivalent volume for 20 weeks). N = 8 per group. Data are shown as log2 fold change. Adjusted P values are indicated as follows: *adjusted P < 0.05; **adjusted P < 0.01; ***adjusted P < 0.001. (C,D) Representative images and quantification of protein aggregates upon 1-deoxy-SA (C) and P053 treatment (D) in human primary IBM cells; both were administered at 4 μM for 24 h. N = 8 per group. (E) Analysis of 1-Deoxy-Spa and 1-DeoxyCer 24:1 levels in myoblasts from healthy and IBM patients. N = 3 per group. (C–E) Quantitative data are expressed as median with IQR and compared using the Mann–Whitney U test. All tests were 2 sided. *P < 0.05, **P < 0.01, ***P < 0.001.
Sphingolipid and deoxysphingolipid measurements were performed by liquid chromatography–tandem mass spectrometry (LC–MS/MS) analysis as described in previous studies.[12],[13],[28]−[30] […]
ESI source conditions were used as follows: dry gas temperature, 230 °C; nebulizer, 35 psi and flow rate of 14 L min^–1; sheath gas temperature, 400 °C and flow rate of 12 L min^–1; nozzle voltage, 500 V; and capillary voltage, 4000 V. Dynamic multiple reaction monitoring was used as the acquisition mode with a total cycle time of 500 ms. […] Raw LC–MS/MS data were processed applying Agilent Quantitative Analysis software (version B.07.00, MassHunter Agilent Technologies).
Absolute quantification was based on calibration curves and stable isotope-labeled internal standards to determine the response factor for each metabolite, with linearity assessed using 12-point range standard curves. […] Sphingolipid concentrations were reported and protein concentrations in protein pellets (measured by BCA, Thermo Fisher Scientific) were determined after metabolite extraction. […]

GMC101 worms = assay: Paralysis scoring in amyloid beta expressing GMC101 worms; assay type: in vivo, Caenorhabditis elegans; conditions: GMC101, 1 μM, day 1 of adulthood
Procedure: At least 100 worms per condition were manually scored for paralysis after poking. Results are representative of data obtained from at least two independent experiments. ALT-007 was administered at 1 μM and DMSO was used as a control. GMC101 animals were used and scoring was performed at day 1 of adulthood.

[4] = design: method as in PMID 29669694; conditions: compared to Myriocin; cited from earlier work
[5] = design: method as in PMID 29669694; conditions: compared to Myriocin; cited from earlier work; remark: listed apart in the source

Compound: COc1cc(C(=O)N2CC[C@H](NC(=O)c3ccccc3OC(F)(F)F)c3c2cnn3C(C)C)cnc1OC [ALT-007]
- VO2max (Aged C57BL/6J mice [1]): significantly higher
- ability to run uphill (maximum running time) (Aged C57BL/6J mice [2]): did not significantly improve
- 1-deoxy-SLs in the brain [3]: attenuated the age-related increase in 1-deoxy-SLs
- total ceramides in the gastrocnemius [3]: lower levels of total ceramides
- very long chain 1-deoxy-SLs (1-deoxyCer 22, 1-deoxyCer 24:1, N-C24:1-deoxysphinganine) in the gastrocnemius muscle [3]: attenuated
- paralysis induced by amyloid beta aggregation (GMC101 worms): reduce paralysis
- aqueous solubility [4]: improved
- permeability [5]: improved
